# Reference: EP0207696A1, “Dialkylaminotetrahydrobenzothiazoles and oxazoles” (ELI LILLY AND COMPANY, priority 1985, dated 1987)
# Legend:
# [1] = system: prolactin secretion; assay: inhibition of prolactin secretion in reserpinized rats; format: in vivo, rats of the Sprague-Dawley strain; settings: percent prolactin inhibition; 50 mcg/kg intraperitoneally; serum one hour after treatment; reserpine-pretreated male rats
# Source text: As previously stated, the compounds of this invention (wherein neither R^3 nor R^4 is H) are receptor agonists; ie, they are capable of increasing the quantities of various neurohormones--dopamine and norepi- nephrine in particular--available for interaction with specific receptors. For example, the compound according to XX wherein R^1 and R^2 are H and R^3 and R^4 are both n-propyl, is a specific dopamine D-2 agonist.
# Adult male rats of the Sprague-Dawley strain weighing about 200 g were housed in an air-conditioned room with controlled lighting (lights on 6 a.m. - 8 p.m.) and fed lab chow and water ad libitum. Each rat received an intraperitoneal injection of 2.0 mg of reserpine in aqueous suspension 18 hours before administration of the test drug. The purpose of the reserpine was to keep the rat prolactin levels uniformly elevated. The compound was dissolved in 10 percent ethanol, and injected intraperitoneally to groups of ten rats at preselected dose levels. A control group of 10 intact males received an equivalent amount of 10 percent ethanol. One hour after treatment, all rats were killed by decapitation, and 150 µl aliquots of serum were assayed for prolactin.
# The difference between the prolactin levels of the treated rats and the control rats, divided by the prolactin level of the control rats gives the percent inhibition of prolactin secretion attributable to the given dose. […]
# [2] = system: 6-hydroxydopamine-lesioned rats; assay: turning behavior in 6-hydroxydopamine-lesioned rats; format: in vivo; settings: 1000 mcg/kg; first 15 minutes after the end of the latency period
# Source text: Dopamine agonists are also known to affect turning behavior in 6-hydroxydopamine-lesioned rats in a test procedure designed to uncover compounds useful for the treatment of Parkinsonism. In this test, nigroneostriatal-lesioned rats are employed, as prepared by the procedure of Ungerstedt and Arbuthnott, Brain Res, 24, 485 (1970). A compound having dopamine agonist activity causes the rats to turn in circles contralateral to the side of the lesion. After a latency period, which varies from compound to compound, the number of turns is counted over a 15-minute period.
# Results obtained from such testing for (±)-2-amino-6-di-n-propylamino-5,6,7,8-tetrahydrobenzothiazole dihydrobromide are set forth in Table 2 below. In the table, column 1 gives the dose and column 2 the average number of turns observed in first 15 minutes after the end of the latency period.
# [3] = system: anesthetized spontaneously hypertensive rats; assay: blood pressure in anesthetized spontaneously hypertensive rats; format: in vivo; settings: anesthetized SHR
# Experimental: Compounds according to XX, particularly those wherein both R^3 and R^4 are methyl, reduce the blood pressure of anesthetized spontaneously hypertensive rats, as illustrated by the following experiment: • Adult male spontaneously hypertensive rats (SHR) (Taconic Farms, Germantown, New York), weighing approximately 300 g. were anesthetized with pentobarbital sodium (60 mg./kg., i.p.). The trachea was cannulated and the SHR respired room air. Pulsatile arterial blood pressure was measured from a cannulated carotid artery using a Statham transducer (P23 ID). Mean arterial blood pressure was calculated as diastolic blood pressure plus 1/3 pulse pressure. Cardiac rate was monitored by a cardiotachometer which was triggered by the systolic pressure pulse. Drug solutions were administered i.v. through a catheter placed in a femoral vein.
# Arterial blood pressure and cardiac rate were recorded on a multichannel oscillograph (Beckman, Model R511A). Fifteen minutes were allowed to elapse following surgery for equilibration of the preparation.
# Table 3 which follows gives the results of this test using (±)-2-amino-6-di-n-propyl-5,6,7,8-tetra- hydrobenzothiazole dihydrobromide. In Table 3, column 1 gives the dose level, column 2, the change in mean arterial blood pressure.
# [4] = system: conscious SHR; assay: hypotensive action in conscious SHR; format: in vivo; settings: 1 mg/kg i.v.
# Experimental: In another test for hypotensive action conscious SHR, cannulated in the femoral artery and vein, were used. The drug was administered i.v. (±)-2-Amino-6-dimethylamino-5,6,7,8-tetrahydrobenzothiazole was tested in this system as the dihydrobromide salt at a 1 mg/kg dose. In the table, column 1 gives time in minutes after injection and columns 2 and 3 the mean percent decrease in arterial pressure and heart rate respectively for that time interval.
compound,measurement,setting,value
"CCCN(CCC)C1CCc2nc(N)sc2C1 (racemic) [(±)-2-Amino-6-di-n-propylamino-5,6,7,8-tetrahydrobenzothiazole]",% Inhibition,[1],30%
same,Average number of Turns,[2],51
same,Decrease in Mean Arterial Blood Pressure,[3]; 1 mcg/kg i.v.,-16.1 ± 2.4
same,Decrease in Mean Arterial Blood Pressure,[3]; 10 mcg/kg i.v.,-21.0 ± 2.0
same,Decrease in Mean Arterial Blood Pressure,[3]; 100 mcg/kg i.v.,-34.1 ± 3.2
same,Decrease in Mean Arterial Blood Pressure,[3]; 1000 mcg/kg i.v.,+13.5 ± 4.4
"CN(C)C1CCc2nc(N)sc2C1 (racemic) [(±)-2-Amino-6-dimethylamino-5,6,7,8-tetrahydrobenzothiazole]",PERCENT CHANGE FROM CONTROL Blood Pressure,[4]; 5 minutes after injection,-3.6%
same,PERCENT CHANGE FROM CONTROL Heart Rate,[4]; 5 minutes after injection,-12.3%
same,PERCENT CHANGE FROM CONTROL Blood Pressure,[4]; 15 minutes after injection,-17.1%
same,PERCENT CHANGE FROM CONTROL Heart Rate,[4]; 15 minutes after injection,-17.7%
same,PERCENT CHANGE FROM CONTROL Blood Pressure,[4]; 30 minutes after injection,-18.6%
same,PERCENT CHANGE FROM CONTROL Heart Rate,[4]; 30 minutes after injection,-15.5%
same,PERCENT CHANGE FROM CONTROL Blood Pressure,[4]; 45 minutes after injection,-16.9%
same,PERCENT CHANGE FROM CONTROL Heart Rate,[4]; 45 minutes after injection,-8.3%
same,PERCENT CHANGE FROM CONTROL Blood Pressure,[4]; 60 minutes after injection,-17.2%
same,PERCENT CHANGE FROM CONTROL Heart Rate,[4]; 60 minutes after injection,-5.2%
same,PERCENT CHANGE FROM CONTROL Blood Pressure,[4]; 90 minutes after injection,-16.9%
same,PERCENT CHANGE FROM CONTROL Heart Rate,[4]; 90 minutes after injection,-0.7%
same,PERCENT CHANGE FROM CONTROL Blood Pressure,[4]; 120 minutes after injection,-15.8%
same,PERCENT CHANGE FROM CONTROL Heart Rate,[4]; 120 minutes after injection,-4.1%
same,PERCENT CHANGE FROM CONTROL Blood Pressure,[4]; 180 minutes after injection,-14.7%
same,PERCENT CHANGE FROM CONTROL Heart Rate,[4]; 180 minutes after injection,-4.1%
